Results from a melting point compilation (Tetko et al.; mined from patent text by program, amines drawn as free bases though some values may be those of a salt).

| SMILES | melting point [°C] |
| --- | --- |
| COc1cc2oc(=O)c(CCN3CCN(c4ccccc4)CC3)c(C)c2c(OC)c1OC | 136 to 137 |
| O=C(O)c1ccccc1OCCN1CCC(c2cn(Cc3ccc(Cl)s3)c3ccccc23)CC1 | 178 to 179 |
| Cc1cc2ccccc2c(C2CC(=O)C=C(O)C2)c1C (stereo not drawn) | 242 |
| CC(C)(C)Nc1cc(Cl)nc(NC(C)(C)C)n1 | 128 to 130 |
| CCCN1C(=O)N(c2ccc([N+](=O)[O-])c(C(F)(F)F)c2)C(=O)C1(C)C | 102 |
| COC(=O)c1cc(F)c(N2CCC(N)C2)nc1Nc1ccc(F)cc1F (stereo not drawn) | 139 to 140 |
| Nc1ccc2c(c1)S(=O)(=O)NCCO2 | 179 |
| CC(=O)OCC(=O)Nc1cccc2c1C(=O)N(C1CCC(=O)NC1=O)C2=O (stereo not drawn) | 234 to 236 |
| CN1CC(CN2CCN(c3ccccc3)CC2)OC1=O (stereo not drawn) | 110 to 112 |
| O=C(Cl)N1CC=C(c2ccccc2)CC1 | 63 |
| CCOc1ccc(CCCOc2nn(C)cc2CC(=O)O)c(Oc2ccc(Cl)cc2Cl)n1 | 81 to 83 |
| O=C1CCCc2ncccc2N1 | 156 to 159 |
| CCOC(=O)c1cnc2cc(F)c(F)cc2c1 | 135 |
| COCc1nc(C(C)(C)O)c(C(=O)O)n1Cc1ccc(-c2ccccc2-c2nnn[nH]2)cc1 | 187 |
| O=C(O)c1cc(-c2ccc(-c3ccc(C(F)(F)F)cc3)o2)ccc1O | 272 to 273 |
| FC(F)(F)c1ccc2[nH]nc(-c3ccccc3)c2c1 | 152 |
| O=C(O)Cn1c(=O)c(-c2ccccc2Cl)cc2cnc(NC3C4CN(Cc5ccccc5)CC43)nc21 (stereo not drawn) | 159 to 163 |
| COc1cc2c(c(C(C)C)c1OC)C(=O)N(CSc1nnnn1-c1ccccc1)S2(=O)=O | 69 to 71 |
| COc1ccc(C(=O)Nc2cc(-c3c(-c4cccc(C)c4)nc4ccc(N(C)C)nn34)ccn2)cc1 | 193 to 194 |
| O=C(CCCc1ccccc1)N[C@@H](Cc1ccccc1)C(=O)O | 178 |
| Nc1ccc(Oc2cc(F)c(C(F)(F)F)c(Cl)c2)cc1 | 55 to 57 |
| CCc1cc2[nH]c(=O)c(-c3ccccc3)cc2c(CC)n1 | > 260 |
| CCCn1cc(Cc2ccc(C(=O)NS(=O)(=O)c3ccccc3C)cc2OC)c2cc(CC3CCN(CC)C3=O)ccc21 (stereo not drawn) | 107 to 115 |
| Cc1ccc(N2C(=O)C(O)=C(C(=O)c3ccc(C(C)C)cc3)C2c2ccc(-c3nnc(C)o3)cc2)nn1 (stereo not drawn) | 293 |
| COc1cc(F)ccc1-c1ccc(S(=O)(=O)N2c3ccccc3CC2C(=O)NCc2ccccc2NCCC(=O)O)cc1 (stereo not drawn) | 121 to 125 |

| SMILES | melting point [°C] |
| --- | --- |
| CC(C)N(CCN1C(=O)/C(=N/NC(N)=O)c2cc(Br)ccc21)C(C)C | 149 to 153 |
| N#Cc1ccc2c(c1)S(=O)(=O)c1ccc(N)cc1C=C2 | 321 to 324 |
| Cc1ccc(N)c(C(=O)c2ccc(F)cc2)c1 | 70 to 71.5 |
| C=Cc1ccc(COc2ccc(CSCCC(=O)O)cc2)cc1 | 135 to 136 |
| O=C(N[C@H]1CCC(=O)N2CCC[C@@H](C(=O)O)N2C1=O)OCc1ccccc1 | 60 to 100 |
| CCOC(=O)CCCCCN1CCC[C@@H](NCc2ccccc2OC)[C@H]1c1ccccc1 (racemic) | 80 to 95 |
| Cc1cc(C=O)ccc1C=O | 71 to 72 |
| O=C(CCl)Nc1ccc2c(c1NC(=O)c1cc(C(F)(F)F)ccc1C(F)(F)F)C(=O)c1ccccc1C2=O | 187 to 188 |
| S=C=Nc1ccc2oc(-c3sccc3CN3CCOCC3)nc2c1 | 117 to 118 |
| COc1cc2ncnc(Nc3ccc(OCc4ccccn4)c(C)c3)c2cc1O | 234 to 235 |
| O=C1C(Cl)=C(C2CCC(c3ccc(Cl)cc3)CC2)C(=O)c2ccccc21 (stereo not drawn) | 172 to 175 |
| CON=C1CCS(=O)(=O)c2c(C)cc(C(=O)O)c(C)c21 | 169 to 171 |
| CCOc1ccc2c(c1)c(C[C@H](C)N)c1n2CCC1 | 101 to 102 |
| Cc1ncn(C(=O)Nc2cc(Cl)cc(Cl)c2)c1Cl | 137 to 139 |
| Cc1nc2c(cc1C(=O)N(C(=N)N)C(=O)OC(C)(C)C)CCCCC2CO (stereo not drawn) | 98 to 100 |
| CC(C)(C)OC(=O)[C@@H]1CS[C@H](c2ccccc2)N1C(=O)CNC(=O)Nc1cccc(CC(=O)O)c1 | 140 |
| COc1ccc(S(=O)(=O)C(C)(Cc2cccnc2)C(=O)NO)cc1 (stereo not drawn) | 98 |
| CC(C(=O)N1c2ccccc2N(C)C(=O)c2cnc(-c3ccccc3)nc21)N1CCCCC1 (stereo not drawn) | 214 to 215 |
| COc1ccc(C2CNC(=O)N2C(C)c2ccccc2)cc1OC1CC2CCC1C2 (stereo not drawn) | 151 to 154 |
| C1=C2c3ccccc3C3CC2(CN1Cc1ccccc1)c1ccccc13 (stereo not drawn) | 135 to 145 |
| COC(=O)c1ccc2c(c1)Oc1ccc(C(=O)OC)cc1C2(C)C | 145 to 147 |
| OCc1cnc2cc(F)ccc2c1O | 295 to 300 |
| N=C(NO)c1ccc(-c2ccc(O)c(-c3nc4cc(C(=N)NO)ccc4[nH]3)c2)cc1 | 319 to 322 |
| CN1C(C(=O)Nc2nncs2)=C(O)c2ccc3ccccc3c2S1(=O)=O | 217 to 219 |
| NS(=O)(=O)c1cccc(C(=O)C(F)(F)F)c1 | 88.4 to 89.1 |

| SMILES | melting point [°C] |
| --- | --- |
| Cc1ccc2cccc(OCc3c(C)ccc(N(C)C(=O)CN4C(=O)c5ccccc5C4=O)c3C)c2n1 | 102 to 110 |
| CN(Cc1ccccc1)c1ncnc2c(N3CCS(=O)CC3)nc(N3CCNCC3)nc12 | 214 to 215 |
| Cc1nc(-n2ccc(NCc3ccccc3)cc2=O)sc1C(=O)NCc1ccccc1 | 253 to 255 |
| O=C(N[C@H](Cc1ccccc1)C(=O)O)OCc1ccc(COc2ccccc2)cc1 | 116 to 117 |
| CC(=O)Oc1cc2ccc(S(=O)(=O)Cl)cc2cc1OC(C)=O | 158 to 167 |
| O=c1ccoc(C(O)c2ccccc2)c1OCc1ccccc1 (stereo not drawn) | 121 to 122 |
| FC(Sc1nnc(-c2ccc(Cl)cc2)s1)=C(F)C(F)(F)F | 69 to 70 |
| CSc1cnn(C(C)(C)C)c(=O)c1C | 115 to 116 |
| Cc1cc2c(c(Cc3c[nH]cn3)c1)OC(C)(C)OC2 | 152 to 155 |
| O=C(Nc1nc(-c2ccco2)c(C(=O)C2CCOCC2)s1)c1ccc(CN2CCCCC2)cc1 | 160 to 162 |
| CC(=O)NNC(COCc1cc(C)cc(C)c1)C1c2ccccc2CCc2ccccc21 (stereo not drawn) | 109 to 111 |
| Cn1nnnc1-c1cn(C)c2ccccc2c1=O | 220 to 222 |
| O=C(O)c1cn(C2CC2)c2cc(N3CCC4(C3)OCCO4)c(F)cc2c1=O | 229 to 230 |
| COC(=O)c1nn(-c2cccc(C(F)(F)F)c2)cc(OC)c1=O | 169 to 170 |
| C/C(=C(\C#N)C(N)=S)N1CCC(O)CC1 | 160 to 163 |
| CCCCCS(=O)(=O)NC(=O)C(C)Cc1ccc(OCCOC)cc1Oc1ncc(C(F)(F)F)cc1Cl (stereo not drawn) | 136 to 138 |
| O=C(Nc1ccc2c(c1)CCC2=O)c1ccc(-c2ccccc2)cc1 | 217 to 219 |
| CC(C)(C)C1CSC2(CCC(C=C(Br)Br)CC2)SC1 (stereo not drawn) | 143 |
| O=C(O)CC[C@H]1O[C@@H](c2ccccc2)c2ccccc2N(Cc2ccccc2)C1=O (relative stereo) | 112 to 114 |
| CCOc1cccc(NC(=O)N2CCc3cc(SC)c(C(F)(F)F)cc32)c1 | 233 to 234 |
| O=C1NOCCN1c1ccc(Cl)c(Cl)c1 | 152 |
| CC1=C(C)N(C(=O)Oc2ccccc2)C(c2ccc(C)cc2)C=C1 (stereo not drawn) | 106 |
| COc1ccc(C(=O)c2ccc(CBr)cc2)cc1 | 76 to 78 |
| CNS(=O)(=O)c1ccc(-c2cccc3nc(Nc4cc(OC)c(OC)c(OC)c4)oc23)cc1 | 260 to 262 |
| COc1ccc(N(CCCC(=O)O)C(=O)C(C)N(C(=O)c2cccc(C(F)(F)F)c2)c2ccc(OC)cc2)cc1 (stereo not drawn) | 119 to 121 |

| SMILES | melting point [°C] |
| --- | --- |
| C=CCOc1cc(C(=O)OC)cc(OCC=C)c1NC(C)=O | 135 to 137 |
| CNS(=O)(=O)c1cc(OC)c(OC)c(C(=O)NCC2CCCN2C)c1 (stereo not drawn) | 111 to 112 |
| COc1cc2c3ccc(OC)c(OC)c3n(S(=O)(=O)c3ccccc3)c2cc1OC | 205 to 206 |
| Cc1cc([N+](=O)[O-])cc(C=O)c1O | 132 to 133 |
| c1ccc(CNC2CN(C(c3ccccc3)c3ccccc3)C2)cc1 | 73 to 75 |
| CC(C)(C)c1cc(/C=C/c2nnc(S(C)(=O)=O)s2)cc(C(C)(C)C)c1O | 235 |
| CCc1nn(CC2CC2)c2cc(C(=O)Nc3c(Cl)cncc3Cl)ccc12 | 148 to 150 |
| COc1ccc(O)c(C2(CO)C(=O)N(Cc3ccc(C(F)(F)F)o3)c3cccc(Cl)c32)n1 (stereo not drawn) | 191 to 193 |
| O=C(C=Cc1ccc(O)cc1)N1CCc2c([nH]c3ccccc23)C1c1ccc2c(c1)OCO2 (stereo not drawn) | 175 |
| C#CC1(CO)C=CC(n2cc(C)c(=O)[nH]c2=O)O1 (stereo not drawn) | 207 to 209 |
| CN(C)CCCCNC(=O)c1ccc(-c2nnc(CSCCOc3ccccc3)o2)cc1 | 71 to 78 |
| COc1cc([C@H]2CC[C@H](c3cc(OC)c(OC)c(OC)c3)C2=O)cc(OC)c1OC (relative stereo) | 140 to 142 |
| Oc1nn(-c2ccccc2)c2ccccc12 | 209 to 211 |
| Cc1c(Nc2c(C#N)cncc2-c2cc3cc(C=O)ccc3o2)ccc2[nH]ccc12 | 235 to 237 |
| C=CCOC(=O)c1ccc(OC(=O)c2ccc(O[Si](C)(C)C(C)(C)C)c(C34CC5CC(CC(C5)C3)C4)c2)nc1 | 130 to 132 |
| COC(=O)Cc1c(OC)ncnc1Oc1cccc(C(C)=O)c1 | 65 to 67 |
| CCCCNc1n[nH]c2c1c(=O)n(CCC)c1ccccc21 | 169 to 172 |
| CCc1cn(C2CC(O)C(CCC(=O)C(C)Oc3ccc(Cl)cc3Cl)O2)c(=O)[nH]c1=O (mixture of isomers) | 157 to 159 |
| Cc1cccc2c1CCN=C2c1ccc(Br)cc1 | 60 to 61.5 |
| CC(C)(C)OC(=O)Nc1cc(N2CCOCC2)c(I)cc1[N+](=O)[O-] | 43 to 44 |
| COc1cc(CC#N)nc(N)n1 | 95 to 98 |
| Cc1cc(Br)cc(C=NO)c1 | 128 to 129 |
| CCCOC(Nc1ccccc1)(OCCC)c1ccnc(C(=O)c2ccc(Cl)cc2)c1 | 140 to 141 |
